Holding throughout (type): cell-based
Assay [1] has as its target Ba/F3 EGFR-D770-N771ins_SVD (Homo sapiens, UniProt P00533, DUP768-770, cells depend on it). Description: Proliferation experiment of Ba/F3 cell line, EGFR-D770-N771ins_SVD (CellTiter-Glo). The conditions noted are these: cultured for 72 hrs with compound, CTG analysis, read-out: Ba/F3 EGFR-D770-N771ins_SVD IC50. In a few lines:
(§1)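 […] Ba/F3 cells expressing EGFR insertion mutants treated 72 h at 37 °C with 9 concentrations, 3.16-fold dilutions, top 10 μM, 0.1% DMSO, in triplicate. Viability by CellTiter-Glo luminescence with T0 reference plate; IC50 (nM) from non-linear dose-response fit.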
For orientation: In ATP-based viability assays light output follows the ATP content of the culture.

In assay [2] the target is Ba/F3 EGFR-V769_D770insASV (Homo sapiens, UniProt P00533, DUP767-769, cells depend on it). Nature of the assay: Proliferation experiment of Ba/F3 cell line, EGFR-V769_D770insASV (CellTiter-Glo). Particulars: cultured for 72 hrs with compound, CTG analysis, read-out: Ba/F3 EGFR-V769_D770insASV IC50. In a few lines: as §1
Chain of Ba/F3 EGFR-V769_D770insASV (P00533 with tags, fused parts or gaps DUP767-769): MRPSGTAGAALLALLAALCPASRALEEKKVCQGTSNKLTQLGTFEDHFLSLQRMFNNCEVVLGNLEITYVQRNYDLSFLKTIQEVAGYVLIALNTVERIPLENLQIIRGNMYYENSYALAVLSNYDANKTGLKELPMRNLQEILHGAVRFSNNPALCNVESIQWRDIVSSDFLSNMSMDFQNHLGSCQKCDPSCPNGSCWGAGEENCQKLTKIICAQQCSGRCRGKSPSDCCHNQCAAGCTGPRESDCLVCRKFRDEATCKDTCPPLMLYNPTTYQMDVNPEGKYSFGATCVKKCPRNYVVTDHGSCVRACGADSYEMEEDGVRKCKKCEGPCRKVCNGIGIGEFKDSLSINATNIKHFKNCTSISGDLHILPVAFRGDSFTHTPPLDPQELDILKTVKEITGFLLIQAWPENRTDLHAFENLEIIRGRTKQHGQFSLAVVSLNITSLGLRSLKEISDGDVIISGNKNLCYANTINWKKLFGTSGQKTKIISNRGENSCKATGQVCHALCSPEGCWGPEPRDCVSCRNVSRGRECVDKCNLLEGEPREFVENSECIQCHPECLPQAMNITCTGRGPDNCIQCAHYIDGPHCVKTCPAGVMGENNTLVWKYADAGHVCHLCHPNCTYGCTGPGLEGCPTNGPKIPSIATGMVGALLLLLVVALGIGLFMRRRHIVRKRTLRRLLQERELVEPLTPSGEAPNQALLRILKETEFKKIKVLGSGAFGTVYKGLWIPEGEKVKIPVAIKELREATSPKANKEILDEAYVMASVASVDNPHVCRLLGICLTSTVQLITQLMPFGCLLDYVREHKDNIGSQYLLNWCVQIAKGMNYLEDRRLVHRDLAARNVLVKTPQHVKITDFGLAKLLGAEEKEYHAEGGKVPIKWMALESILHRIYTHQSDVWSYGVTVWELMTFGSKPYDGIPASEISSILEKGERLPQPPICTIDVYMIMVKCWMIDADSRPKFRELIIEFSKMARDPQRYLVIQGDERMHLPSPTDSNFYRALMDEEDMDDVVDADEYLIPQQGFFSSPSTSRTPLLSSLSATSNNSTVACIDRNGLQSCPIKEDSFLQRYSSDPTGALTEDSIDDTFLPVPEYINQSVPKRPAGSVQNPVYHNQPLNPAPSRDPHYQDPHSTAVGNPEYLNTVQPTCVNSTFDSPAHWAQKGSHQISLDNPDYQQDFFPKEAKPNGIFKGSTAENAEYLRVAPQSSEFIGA
In assay [3] the test system is A431 (EGFR-WT). Description: Proliferation experiment, A431 cell line (CellTiter-Glo). The conditions noted are these: Homo sapiens, A-431; A431 cells, cultured for 72 hrs with compound, CTG analysis.

We go through 24 compounds from patent US12649727B2, “EFGR inhibitor, preparation method therefor and application thereof” (Abbisko Therapeutics Co., Ltd, priority 2020, dated 2026).

What is called IC50 is the point on the concentration scale where inhibition reaches its midpoint.

Chain of Ba/F3 EGFR-D770-N771ins_SVD (P00533 with tags, fused parts or gaps DUP768-770): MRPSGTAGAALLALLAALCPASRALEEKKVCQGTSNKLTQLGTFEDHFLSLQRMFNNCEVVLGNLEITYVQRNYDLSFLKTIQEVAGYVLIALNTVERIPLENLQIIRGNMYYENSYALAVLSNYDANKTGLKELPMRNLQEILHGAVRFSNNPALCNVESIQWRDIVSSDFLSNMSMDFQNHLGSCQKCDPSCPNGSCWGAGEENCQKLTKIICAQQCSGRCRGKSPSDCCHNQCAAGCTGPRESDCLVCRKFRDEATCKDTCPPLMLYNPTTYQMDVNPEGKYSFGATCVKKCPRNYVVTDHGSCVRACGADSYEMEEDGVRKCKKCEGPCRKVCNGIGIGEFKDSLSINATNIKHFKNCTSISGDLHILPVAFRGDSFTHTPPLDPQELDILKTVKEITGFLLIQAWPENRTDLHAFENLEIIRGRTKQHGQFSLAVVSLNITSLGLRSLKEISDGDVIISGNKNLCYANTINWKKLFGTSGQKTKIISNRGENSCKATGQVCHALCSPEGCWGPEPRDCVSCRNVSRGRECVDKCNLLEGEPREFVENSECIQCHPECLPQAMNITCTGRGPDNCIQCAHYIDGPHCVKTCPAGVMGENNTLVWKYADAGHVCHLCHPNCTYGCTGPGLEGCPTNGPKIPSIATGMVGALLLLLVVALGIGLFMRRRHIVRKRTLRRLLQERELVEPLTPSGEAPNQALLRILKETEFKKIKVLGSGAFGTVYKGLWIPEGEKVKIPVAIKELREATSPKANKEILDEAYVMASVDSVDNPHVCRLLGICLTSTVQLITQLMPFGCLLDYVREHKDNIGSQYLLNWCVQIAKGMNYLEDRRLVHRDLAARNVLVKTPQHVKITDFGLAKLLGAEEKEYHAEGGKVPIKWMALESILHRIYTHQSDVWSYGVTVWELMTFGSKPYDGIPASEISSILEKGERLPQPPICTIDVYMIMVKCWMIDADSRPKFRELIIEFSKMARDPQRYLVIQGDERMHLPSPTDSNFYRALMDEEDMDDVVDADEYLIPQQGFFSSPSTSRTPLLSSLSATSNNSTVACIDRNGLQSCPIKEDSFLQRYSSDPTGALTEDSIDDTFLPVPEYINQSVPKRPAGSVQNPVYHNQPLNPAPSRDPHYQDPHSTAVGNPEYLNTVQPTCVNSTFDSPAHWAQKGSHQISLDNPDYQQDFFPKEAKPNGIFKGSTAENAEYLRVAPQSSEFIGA

With `C=C(F)C(=O)Nc1cc2c(Nc3ccnc(-c4ccccc4F)c3)ncnc2cc1O[C@@H]1CCN(C2COC2)C1` [Example 118, (R)-2-fluoro-N-(4-((2-(2-fluorophenyl)pyridin-4-yl)amino)-7-((1-(oxetan-3-yl)pyrrolidin-3-yl)oxy)quinazolin-6-yl)acrylamide], the values for the GI50 in assay [1] and in assay [2] were 0.0026 µM and 0.0098 µM, respectively. Besides, in assay [3], the IC50 came to 0.0191 µM.
On to `C=CC(=O)Nc1cc2c(Nc3ccnc(-c4c(F)cccc4F)c3)ncnc2cc1OCCCN1CCN(C)CC1` [Example 74, N-(4-((2-(2,6-difluorophenyl)pyridin-4-yl)amino)-7-(3-(4-methylpiperazin-1-yl)propoxy)quinazolin-6-yl)acrylamide], for which the values for the GI50 in assay [1] and in assay [2] were 0.0035 µM and 0.0044 µM, respectively. The IC50 in assay [3] stood at 0.136 µM.
In the case of `C=CC(=O)Nc1cc2c(Nc3ccnc(-c4ccccc4F)c3)ncnc2cc1OCCCN1CCN(C)CC1` [Example 70, N-(4-((2-(2-fluorophenyl)pyridin-4-yl)amino)-7-(3-(4-methylpiperazin-1-yl)propoxy)quinazolin-6-yl)acrylamide], the GI50 was found to be 0.0031 µM in assay [1] and 0.005 µM in assay [2]. Besides, the IC50 in assay [3] came out at 0.081 µM.
Consider `C=CC(=O)Nc1cc2c(Nc3ccnc(-c4ccc(F)cc4F)c3)ncnc2cc1OCCCN1CCN(C)CC1` [Example 79, N-(4-((2-(2,4-difluorophenyl)pyridin-4-yl)amino)-7-(3-(4-methylpiperazin-1-yl)propoxy)quinazolin-6-yl)acrylamide], for which the GI50 in assay [1] was found to be 0.0042 µM; in assay [2], 0.0068 µM. The IC50 in assay [3] amounted to 0.0321 µM.
As for `C=CC(=O)Nc1cc2c(Nc3cccc(-n4nccn4)c3)ncnc2cc1OCCCN1CCN(C)CC1` [Example 56, N-(4-((3-(2H-1,2,3-triazol-2-yl)phenyl)amino)-7-(3-(4-methylpiperazin-1-yl)propoxy)quinazolin-6-yl)acrylamide], the figures for the GI50 in assay [1] and in assay [2] were 0.0114 µM and 0.0226 µM, respectively. For the same compound, the IC50 in assay [3] was 0.357 µM.
On to `C=CC(=O)Nc1cc2c(Nc3cccc(-c4c(F)cccc4F)c3)ncnc2cc1OCCCN1CC[C@@H](N(C)C)C1` [Example 34, (R)-N-(4-((2′,6′-difluoro-[1,1′-biphenyl]-3-yl)amino)-7-(3-(3-(dimethylamino)pyrrolidin-1-yl)propoxy)quinazolin-6-yl)acrylamide], for which the GI50 in assay [1] was found to be 0.0215 µM; in assay [2], 0.0331 µM. Further, the IC50 in assay [3] came out at 0.26 µM.
On the same counts, the results for `C=C(F)C(=O)Nc1cc2c(Nc3ccnc(-c4ccccc4F)c3)ncnc2cc1N1CCC(N2CCOCC2)CC1` [Example 102, 2-fluoro-N-(4-((2-(2-fluorophenyl)pyridin-4-yl)amino)-7-(4-morpholinopiperidin-1-yl)quinazolin-6-yl)acrylamide] are 0.0061 µM, 0.017 µM and 0.733 µM.
With `C=CC(=O)Nc1cc2c(Nc3ccnc(-c4ccccc4F)c3)ncnc2cc1F` [Example 92, N-(7-fluoro-4-((2-(2-fluorophenyl)pyridin-4-yl)amino)quinazolin-6-yl)acrylamide], the GI50 in assay [1] came out at 0.0305 µM; in assay [2], 0.0167 µM. Further, the IC50 in assay [3] was 0.355 µM.
`C=CC(=O)Nc1cc2c(Nc3cccc(-c4c(F)cccc4F)c3)ncnc2cc1OCCCN1CCN(CC(F)(F)F)CC1` [Example 31, N-(4-((2′,6′-difluoro-[1,1′-biphenyl]-3-yl)amino)-7-(3-(4-(2,2,2-trifluoroethyl)piperazin-1-yl)propoxy)quinazolin-6-yl)acrylamide]: the values for the GI50 in assay [1] and in assay [2] were 0.0682 µM and 0.111 µM, respectively. For the same compound, the half-inhibitory concentration (IC50) in assay [3] was 0.225 µM.
Consider `C=CC(=O)Nc1cc2c(Nc3ccnc(-c4ccccc4F)c3)ncnc2cc1OCCCN1CCOCC1` [Example 69, N-(4-((2-(2-fluorophenyl)pyridin-4-yl)amino)-7-(3-morpholinopropoxy)quinazolin-6-yl)acrylamide], for which the results for the GI50 in assay [1] and in assay [2] were 0.0034 µM and 0.005 µM, respectively. Also, the IC50 in assay [3] is 0.0381 µM.
On the same counts, the results for `C=CC(=O)Nc1cc2c(Nc3cccc(-c4ccc(F)cc4F)c3)ncnc2cc1OCCCN1CCOCC1` [Example 1, N-(4-((2′,4′-difluoro-[1,1′-biphenyl]-3-yl)amino)-7-(3-morpholinopropoxy)quinazolin-6-yl)acrylamide] are 0.0118 µM, 0.0424 µM and 0.215 µM.
As for `C=CC(=O)Nc1cc2c(Nc3ccnc(-c4ccccc4F)c3)ncnc2cc1O[C@@H]1CCN(C)C1` [Example 65, (R)—N-(4-((2-(2-fluorophenyl)pyridin-4-yl)amino)-7-((1-methylpyrrolidin-3-yl)oxy)quinazolin-6-yl)acrylamide], the values for the GI50 in assay [1] and in assay [2] were 0.0041 µM and 0.0079 µM, respectively. Moreover, the IC50 in assay [3] was determined as 0.289 µM.
On to `C=CC(=O)Nc1cc2c(Nc3cccc(-c4c(F)cccc4F)c3)ncnc2cc1OCCCN1CCOCC1` [Example 27, N-(4-((2′,6′-difluoro-[1,1′-biphenyl]-3-yl)amino)-7-(3-morpholinopropoxy)quinazolin-6-yl)acrylamide], for which the GI50 came out at 0.0152 µM in assay [1] and 0.0443 µM in assay [2]. For the same compound, the IC50 in assay [3] was 0.204 µM.
For `C=CC(=O)Nc1cc2c(Nc3cncc(-c4c(F)cccc4F)c3)ncnc2cc1OCCCN1CCN(C)CC1` [Example 62, N-(4-((5-(2,6-difluorophenyl)pyridin-3-yl)amino)-7-(3-(4-methylpiperazin-1-yl)propoxy)quinazolin-6-yl)acrylamide] the same measures were 0.011 µM, 0.0236 µM and 0.348 µM.
Regarding `C=CC(=O)Nc1cc2c(Nc3cccc(-c4c(F)cccc4F)c3)ncnc2cc1OCCCN1CC[C@H](N(C)C)C1` [Example 35, (S)-N-(4-((2′,6′-difluoro-[1,1′-biphenyl]-3-yl)amino)-7-(3-(3-(dimethylamino)pyrrolidin-1-yl)propoxy)quinazolin-6-yl)acrylamide], the GI50 is 0.0268 µM in assay [1] and 0.0356 µM in assay [2]. The IC50 in assay [3] was 0.193 µM.
Take `C=CC(=O)Nc1cc2c(Nc3ccc(F)c(-c4ccc(F)cc4)c3)ncnc2cc1OCCCN1CCOCC1` [Example 41, N-(4-((4′,6-difluoro-[1,1′-biphenyl]-3-yl)amino)-7-(3-morpholinopropoxy)quinazolin-6-yl)acrylamide]: the GI50 stood at 0.0192 µM in assay [1] and 0.0365 µM in assay [2]. Also, in assay [3], the IC50 came to 0.927 µM.
Consider `C=CC(=O)Nc1cc2c(Nc3cccc(-c4ccc(F)cc4F)c3)ncnc2cc1OCCN1CCOCC1` [Example 3, N-(4-((2′,4′-difluoro-[1,1′-biphenyl]-3-yl)amino)-7-(2-morpholinoethoxy)quinazolin-6-yl)acrylamide], for which the GI50 in assay [1] turned out to be 0.0385 µM; in assay [2] it was 0.117 µM. In addition, the IC50 in assay [3] turned out to be 0.343 µM.
Consider `C=CC(=O)Nc1cc2c(Nc3cccc(-c4c(F)cccc4F)c3)ncnc2cc1OCCCN1CCN(C)CC1` [Example 5, N-(4-((2′,6′-difluoro-[1,1′-biphenyl]-3-yl)amino)-7-(3-(4-methylpiperazin-1-yl)propoxy)quinazolin-6-yl)acrylamide], for which the GI50 in assay [1] was found to be 0.013 µM; in assay [2], 0.0203 µM. In addition, in assay [3], the IC50 is 0.223 µM.
Regarding `C=CC(=O)Nc1cc2c(Nc3ccnc(-c4ccccc4F)c3)ncnc2cc1N1CCC(N2CCOCC2)CC1` [Example 98, N-(4-((2-(2-fluorophenyl)pyridin-4-yl)amino)-7-(4-morpholinopiperidin-1-yl)quinazolin-6-yl)acrylamide], the GI50 in assay [1] amounted to 0.002 µM; in assay [2], 0.0063 µM. Further, the IC50 in assay [3] amounted to 1.53 µM.
For the compound `C=CC(=O)Nc1cc2c(Nc3cccc(-n4cccn4)c3)ncnc2cc1OCCCN1CCN(C)CC1` [Example 53, N-(4-((3-(1H-pyrazol-1-yl)phenyl)amino)-7-(3-(4-methylpiperazin-1-yl)propoxy)quinazolin-6-yl)acrylamide], the GI50 is 0.0114 µM in assay [1] and 0.0223 µM in assay [2]. The IC50 in assay [3] amounted to 0.341 µM.
`C=C(F)C(=O)Nc1cc2c(Nc3ccnc(-c4ccccc4F)c3)ncnc2cc1O[C@@H]1CCN(C2CCOCC2)C1` [Example 121, (R)-2-fluoro-N-(4-((2-(2-fluorophenyl)pyridin-4-yl)amino)-7-((1-(tetrahydro-2H-pyran-4-yl)pyrrolidin-3-yl)oxy)quinazolin-6-yl)acrylamide]: the GI50 in assay [1] turned out to be 0.0065 µM; in assay [2], 0.0165 µM. Further, the IC50 in assay [3] was 0.0441 µM.
In the case of `C=CC(=O)Nc1cc2c(Nc3cccc(-c4ncccc4F)c3)ncnc2cc1OCCCN1CCN(C)CC1` [Example 44, N-(4-((3-(3-fluoropyridin-2-yl)phenyl)amino)-7-(3-(4-methylpiperazin-1-yl)propoxy)quinazolin-6-yl)acrylamide], the GI50 in assay [1] worked out at 0.0139 µM; in assay [2] it was 0.0293 µM. The half-maximal inhibitory concentration (IC50) in assay [3] is 0.083 µM.
With `C=C(F)C(=O)Nc1cc2c(Nc3ccnc(-c4ccccc4F)c3)ncnc2cc1OCC` [Example 87, 2-fluoro-N-(4-((2-(2-fluorophenyl)pyridin-4-yl)amino)-7-ethoxyquinazolin-6-yl)acrylamide], the GI50 in assay [1] came out at 0.0041 µM; in assay [2], 0.0107 µM. The IC50 in assay [3] came out at 0.487 µM.
With `C=CC(=O)Nc1cc2c(Nc3cccc(-c4c(F)cccc4F)c3)ncnc2cc1OCCCN1CCN(C2COC2)CC1` [Example 30, N-(4-((2′,6′-difluoro-[1,1′-biphenyl]-3-yl)amino)-7-(3-(4-(oxetan-3-yl)piperazin-1-yl)propoxy)quinazolin-6-yl)acrylamide], the figures for the GI50 in assay [1] and in assay [2] were 0.0253 µM and 0.0541 µM, respectively. In assay [3], the IC50 is 0.0681 µM.
